Test results: PubChem BioAssay AID720588 (Broad Institute, 2013)
Calls of active or inactive are those of the source.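 Rule for the calls: active = fitted curve falls past a set limit of signal loss at no more than twice the top dose; inconclusive = flat fit between 30 and 70% signal loss, or poor fit; inactive = signal rise, flat within 30%, or crossing too high.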

Assay: HEK293T cell cytotoxicity, dose response, cytotoxicity control, CellTiter-Glo luminescence, cherry-pick, set 3 (AID 720588)
Conditions: HEK293T viability, CellTiter-Glo ATP luminescence, 72 h; at 21 µM (top of the series)
For Cc1ccc(S(=O)(=O)N(C)C[C@@H]2Oc3ccc(NC(=O)CCCCCC(=O)Nc4ccccc4N)cc3CC(=O)N([C@@H](C)CO)C[C@@H]2C)cc1, the activity change, negative = cytotoxicity was 3.82% (inactive). In the case of COc1ccc(S(=O)(=O)Nc2cccc3c2O[C@H](CN(C)Cc2ccc(C(=O)Nc4ccccc4N)cc2)[C@H](C)CN([C@@H](C)CO)C3=O)cc1, the activity change, negative = cytotoxicity is reported as -18.8% (inactive).

Same assay, conditions: HEK293T viability, CellTiter-Glo ATP luminescence, 72 h; at 23.5 µM (top of the series)
In the case of C[C@@H]1CN([C@@H](C)CO)C(=O)c2cccc(NC(=O)Nc3cccc4ccccc34)c2O[C@@H]1CN(C)Cc1ccc(C(=O)Nc2ccccc2N)cc1, the activity change, negative = cytotoxicity is reported as -11.5% (inactive). With C[C@H]1CN([C@@H](C)CO)C(=O)Cc2cc(NC(=O)CCCCCC(=O)Nc3ccccc3N)ccc2O[C@H]1CN(C)Cc1ccc(Cl)c(Cl)c1 the activity change, negative = cytotoxicity was -33.8% (inactive).

Same assay, conditions: HEK293T viability, CellTiter-Glo ATP luminescence, 72 h; at 26 µM (top of the series)
In the case of CN(C)C(=O)c1cccc(-c2ccc(C3[C@@H]4CN(Cc5nccs5)C[C@H]3N4)cc2)c1 (some centres undefined), the activity change, negative = cytotoxicity is reported as 51.7% (inactive). In the case of CC(C)c1oc(=O)cc2c1[C@@H](O)[C@H]1OC(=O)[C@@]3(C)CC[C@@H](O)[C@@]2(C)C13 (some centres undefined), the activity change, negative = cytotoxicity is reported as -27.6% (inactive). For CCOc1ccccc1CNC(=O)c1ccc(Sc2ccc(Cl)cc2)c(NC(C)=O)c1, the activity change, negative = cytotoxicity was -4.6% (inactive). For OC[C@H]1O[C@@H](n2cnc3c(NCc4ccco4)ncnc32)[C@H](O)[C@@H]1O, the activity change, negative = cytotoxicity was -42.7% (inactive). With COC(=O)C[C@@H]1CC[C@@H]2[C@H](COc3ccc(NC(=O)Nc4ccc(C#N)cc4)cc3C(=O)N2C)O1 the activity change, negative = cytotoxicity was 46.8% (inactive). With N#C[C@H]1[C@H](c2ccc(-c3ccccc3F)cc2)[C@@H](CO)N1C(=O)Cc1ccccc1 the activity change, negative = cytotoxicity was -28.3% (inactive). For CCCCOc1ccc(NC(=O)C(=O)NCCCn2ccnc2)cc1, the activity change, negative = cytotoxicity was -3.53% (inactive). In the case of COC(=O)C[C@@H]1CC[C@@H]2[C@H](COc3ccc(NC(=O)c4cc(C)on4)cc3C(=O)N2C)O1, the activity change, negative = cytotoxicity is reported as -12.8% (inactive). For Cc1nc2cc(-c3ccc(Cl)cc3)nn2c(C)c1CCC(=O)NC(C)c1ccc2c(c1)OCCO2 (centres undefined), the activity change, negative = cytotoxicity was -34.9% (inactive). For O=C(N/N=C/c1cccs1)c1n[nH]c2c1CCCC2, the activity change, negative = cytotoxicity was -10.2% (inactive). With CCCn1nnc(NC(=S)NC(=O)C(C)(C)C)n1 the activity change, negative = cytotoxicity was -9.98% (inactive). In the case of CN1C(=O)c2cc(NC(=O)c3ccc(C(F)(F)F)cc3)ccc2OC[C@@H]2O[C@@H](CC(=O)NC3Cc4ccccc4C3)CC[C@H]21, the activity change, negative = cytotoxicity is reported as -32.5% (inactive). With CCN(CC)C(=O)CN1C(=O)C(=O)c2ccccc21 the activity change, negative = cytotoxicity was -11% (inactive). With CCOC(=O)c1c(-c2ccc(C)cc2)csc1NC(=O)CCN1CCOCC1 the activity change, negative = cytotoxicity was 5.98% (inactive). For COc1ccc(C2=Nn3c(nnc3-c3ccccc3F)SC2)cc1OC1CCOC1 (centres undefined), the activity change, negative = cytotoxicity was -7.39% (inactive). For COC(=O)c1cccc(NC(=O)NC(=O)c2ccc(Cl)cc2)c1, the activity change, negative = cytotoxicity was -17% (inactive). For CN(C)c1ccc(N=Nc2ccccc2Br)cc1, the activity change, negative = cytotoxicity was -16.8% (inactive). For CCc1ccc(/C=C2\SC(=S)N(CCCC(=O)NCCCN3CCOCC3)C2=O)cc1, the activity change, negative = cytotoxicity was -13.1% (inactive). In the case of CN(C)C(=O)c1ccc(-c2ccccc2[C@@H]2[C@@H](CO)N(C(=O)C3CC3)[C@H]2C#N)cc1, the activity change, negative = cytotoxicity is reported as 13.4% (inactive). In the case of COC(=O)C[C@@H]1CC[C@@H]2[C@H](COc3ccc(NC(=O)Nc4cccc(C#N)c4)cc3C(=O)N2C)O1, the activity change, negative = cytotoxicity is reported as 53.6% (inactive). With C[C@@H]1CN([C@H](C)CO)S(=O)(=O)c2ccc(C#CC3CC3)cc2O[C@@H]1CN(C)Cc1ccccc1F the activity change, negative = cytotoxicity was -30.1% (inactive). For CCCc1nc2ccc(NC(=O)c3cccs3)cc2c(=O)n1Cc1ccccc1Cl, the activity change, negative = cytotoxicity was -2.41% (inactive). In the case of O=c1c2ccccc2oc2cc(C#CC3(O)CCCCC3)ccc12, the activity change, negative = cytotoxicity is reported as 15.7% (inactive). With CC(=O)c1ccc(N=Nc2ccc(C)cc2)cc1 the activity change, negative = cytotoxicity was -17% (inactive). For O=C(N/N=C/c1cnc(N2CCCCC2)s1)c1ccc(C(F)(F)F)cc1, the activity change, negative = cytotoxicity was -9.42% (inactive). For C[C@@H]1CCCCO[C@H](CN(C)Cc2ccc(C(=O)Nc3ccccc3N)cc2)[C@@H](C)CN([C@@H](C)CO)C(=O)c2cc(NS(=O)(=O)c3ccc(Cl)cc3)ccc2O1, the activity change, negative = cytotoxicity was -25.9% (inactive). With COc1ccc2oc(C(=O)NCCc3ccccc3)c(C)c2c1 the activity change, negative = cytotoxicity was -22.1% (inactive). With CN(C)c1ncnc2c1ccn2C1OC(CO)C(O)C1O (centres undefined) the activity change, negative = cytotoxicity was -37% (inactive). For C[C@@H]1CN([C@H](C)CO)C(=O)c2cc(NS(=O)(=O)c3ccc(Cl)cc3)ccc2O[C@@H]1CN(C)Cc1ccc(Cl)c(Cl)c1, the activity change, negative = cytotoxicity was -9.51% (inactive). For C#CCOCCOCCOCCNc1nc(N2CCN(C(=O)CCCCCCCCCCNC(=O)Cn3cc(C[C@@H](C)O)nn3)CC2)nc(N2CCN(C(=O)CCCCCCCCCCNC(=O)[C@H](CO)n3cc(CCCSC)nn3)CC2)n1, the activity change, negative = cytotoxicity was 23.5% (inactive). With CN=c1scc(-c2ccccc2F)n1/N=C/c1ccc(O)c(O)c1O the activity change, negative = cytotoxicity was -25.3% (inactive). With C[C@H](CO)N1C[C@H](C)[C@H](CN(C)Cc2ccc(C(F)(F)F)cc2)Oc2c(NS(=O)(=O)c3ccc(Cl)cc3)cccc2C1=O the activity change, negative = cytotoxicity was -9.18% (inactive). For CCCNC(=O)N1[C@H](C#N)[C@H](c2ccc(C#Cc3ccc(F)cc3)cc2)[C@H]1CO, the activity change, negative = cytotoxicity was 14.3% (inactive). For Cc1ccccc1N=CC1=C(O)c2ccccc2C1=O, the activity change, negative = cytotoxicity was 1.79% (inactive). In the case of C[C@H]1CN([C@@H](C)CO)C(=O)c2cc(NS(=O)(=O)c3ccc(Cl)cc3)ccc2O[C@H]1CN(C)Cc1ccc(C(=O)Nc2ccccc2N)cc1, the activity change, negative = cytotoxicity is reported as -0.354% (inactive). For COc1cc2c(cc1OC)C(C)N(C(=O)c1cc(Cl)nc(Cl)c1)CC2 (centres undefined), the activity change, negative = cytotoxicity was -13.4% (inactive). With O=C(O)c1ccc(N/N=C/c2ccc(OC(=O)c3cccc(Cl)c3)cc2)cc1 the activity change, negative = cytotoxicity was -29.8% (inactive). With CCn1c(/C=N/NC(=O)c2ccc(OC)cc2)nc2ccccc21 the activity change, negative = cytotoxicity was -10.9% (inactive). In the case of C[C@@H]1CN([C@H](C)CO)S(=O)(=O)c2ccc(C#Cc3ccncc3)cc2O[C@@H]1CN(C)C(=O)Nc1ccc2c(c1)OCO2, the activity change, negative = cytotoxicity is reported as -4.95% (inactive). For O=C(Cc1nn[nH]n1)c1ccccc1O, the activity change, negative = cytotoxicity was 1.92% (inactive). For COc1ccc(C2=Nn3c(nnc3-c3ccccc3OC)SC2)cc1OCC1CC1, the activity change, negative = cytotoxicity was -31.8% (inactive). In the case of O=C(NCCc1ccccc1)c1ccccc1NC(=O)C1CCCO1 (centres undefined), the activity change, negative = cytotoxicity is reported as 5.83% (inactive). With Cc1ccc(N=C2NC(=O)/C(=C\c3cccs3)S2)cc1C the activity change, negative = cytotoxicity was -13% (inactive). With Cc1cc(C(=O)NNC(=O)c2ccc(S(=O)(=O)N(C)C)cc2)c(C)o1 the activity change, negative = cytotoxicity was -12.5% (inactive). For C[C@H]1CN([C@@H](C)CO)C(=O)Cc2cc(NC(=O)CCCCCC(=O)Nc3ccccc3N)ccc2O[C@H]1CN(C)Cc1ccc(C(F)(F)F)cc1, the activity change, negative = cytotoxicity was -19% (inactive). In the case of COc1cccc(CN2CCC2(C)C(=O)Nc2cccc3cccnc23)c1F (centres undefined), the activity change, negative = cytotoxicity is reported as -6.02% (inactive). For COc1cc(-c2noc(C)c2C#Cc2nccn2C)cc(OC)c1OC, the activity change, negative = cytotoxicity was -11% (inactive). In the case of COCc1cc(C)nc2sc(C(=O)NCCO)c(-n3cccc3)c12, the activity change, negative = cytotoxicity is reported as 12.7% (inactive). With COc1ccccc1/C=C1\SC(=S)N(CCC(=O)Nc2cc(C)on2)C1=O the activity change, negative = cytotoxicity was 8.14% (inactive). In the case of CCNC(=O)c1cc2c(c(-c3cccc(-c4cccc(OC)c4)c3)n1)[C@H](CCO)N([S@@](=O)C(C)(C)C)C2, the activity change, negative = cytotoxicity is reported as -17.3% (inactive). For O=C(O)CN1C(=O)/C(=C\c2ccccc2OCc2ccc(Cl)cc2Cl)SC1=S, the activity change, negative = cytotoxicity was 4.7% (inactive). With O=c1c2ccccc2oc2ccc(C#CC3(O)CCCCC3)cc12 the activity change, negative = cytotoxicity was -6.65% (inactive). With C/C=C/c1ccc(C2[C@@H]3CN(C(=O)Cc4ccccc4)C[C@H]2N3)cc1 (some centres undefined) the activity change, negative = cytotoxicity was 18% (inactive). For N#Cc1cccc(-c2ccc(C3[C@@H]4CN(C(=O)Cc5ccncc5)C[C@H]3N4)cc2)c1 (some centres undefined), the activity change, negative = cytotoxicity was 35.3% (inactive). With COc1ccc(S(=O)(=O)N2CCCc3nc(-c4ccc(F)cc4)ccc32)cc1 the activity change, negative = cytotoxicity was -5.94% (inactive). For Nc1sc(-c2ccccc2)cc1-c1n[nH]c(=S)n1C1CCCCC1, the activity change, negative = cytotoxicity was -4.9% (inactive). For Cc1ccc(OCCNC(=O)c2cccc(S(=O)(=O)NCc3ccccc3)c2)cc1, the activity change, negative = cytotoxicity was 12.3% (inactive). For N#C[C@H]1[C@H](c2ccc(-c3ccccc3F)cc2)[C@@H](CO)N1C(=O)c1ccccn1, the activity change, negative = cytotoxicity was -19.7% (inactive). With Cc1ccc(/C=C2\SC(=S)N(CCC(=O)NNC(=O)c3ccccc3O)C2=O)cc1 the activity change, negative = cytotoxicity was 24.1% (inactive). In the case of Cc1cc(C)cc(OCC(=O)OCC(=O)Nc2cc(S(=O)(=O)N3CCOCC3)ccc2C)c1, the activity change, negative = cytotoxicity is reported as -14.2% (inactive). In the case of CCCCNC1=CC(=O)C(=O)c2ccccc21, the activity change, negative = cytotoxicity is reported as -32.1% (inactive). In the case of O=C(O)c1ccc(N/N=C/c2c[nH]c3ccccc23)cc1, the activity change, negative = cytotoxicity is reported as 6.31% (inactive). In the case of O=C(N/N=C/c1ccc[nH]1)c1cc(-c2ccc(Cl)cc2)nc2ccccc12, the activity change, negative = cytotoxicity is reported as -26.6% (inactive). For COc1ccc(C/C(N)=N/OC(C)=O)cc1OC, the activity change, negative = cytotoxicity was -1.12% (inactive). For O=C(CNC(c1ccccc1)c1ccccc1)Nc1ccccc1-c1ccccc1, the activity change, negative = cytotoxicity was -23.7% (inactive). With Cc1cccc(N2CCN(C3C(=O)Nc4ccccc4-n4nnnc43)CC2)c1C (centres undefined) the activity change, negative = cytotoxicity was -24.4% (inactive). In the case of O=C(NC(=O)c1ccccc1)Nc1ccccc1, the activity change, negative = cytotoxicity is reported as -31.5% (inactive). For O=C(Nc1cccc(S(=O)(=O)N2CCCC2)c1)c1ccc(Cl)nc1, the activity change, negative = cytotoxicity was -35.5% (inactive). For Cc1ccc(S(=O)(=O)N(C)C[C@H]2Oc3c(cccc3N(C)C)C(=O)N([C@@H](C)CO)C[C@@H]2C)cc1, the activity change, negative = cytotoxicity was -21% (inactive). With Cc1csc(NC(=O)CCc2c(C)nc3cc(-c4ccc(Cl)cc4)nn3c2C)n1 the activity change, negative = cytotoxicity was -13.4% (inactive).
